Values of other authors, collected in PMC12736120, “First-in-Human Phase I Clinical Trial of SLC-391, a Novel and Selective AXL Inhibitor, in Patients with Advanced Solid Tumours” (Pharmaceuticals, 2025).

Tests used:
TYRO3 = conditions: stated in the Introduction, no reference given; read-out: IC50 against TYRO3; cited from earlier work
MER = conditions: stated in the Introduction, no reference given; read-out: IC50 against MER; cited from earlier work
[1] = test system: multiple solid tumour and haematological tumour models; parameters: method as in PMID 33786587, doi:10.1158/1538-7445.AM2014-2716, doi:10.1158/1538-7445.AM2014-1746, doi:10.1158/1538-7445.AM2015-5393, doi:10.1158/1538-7445.AM2017-4196; conditions: alone or in combination with chemotherapy or immune checkpoint blockade; models including lung cancer, colon cancer, CML, AML; cited from earlier work

## Nc1ncc(-c2cnn(C3CCNCC3)c2)cc1-c1nnc(CC2CC2)o1 [SLC-391, 3-(5-[cyclopropylmethyl]-1,3,4-oxadiazol-2-yl)-5-(1-[piperidin-4-yl]-1H-pyrazol-4-yl)-pyridin-2-amine]
TYRO3
  IC50: 42.3 nM
MER
  IC50: 44 nM
[1]
  tumour growth inhibition: results in tumour growth inhibition
